Results: US20140371244A1, “METHOD FOR TREATING PROSTATE CANCER BY USE OF PHARMACEUTICAL COMPOSITION CONTAINING A3 ADENOSINE RECEPTOR AGONIST” (priority 2009, published 2014)
pIC50: −log10 of the molar value.

How the values were obtained:
[1] = tested on: iNOS (inducible nitric oxide synthase); experiment: NO production inhibitory activity (iNOS assay) in LPS-stimulated RAW 264.7 cells; type: cell-based, mouse; settings: LPS 1 μg/ml; for pIC50: RAW 264.7 cells, 20 hours, read-out: IC50 of NO production inhibition
Protocol: A test was carried out to examine the inhibitory activity of the inhibitory activity of the inventive composition on the enzyme iNOS (inducible nitric oxide synthase) whose expression increases when inflammatory reactions and traumas exist.
Specifically, RAW 264.7 cells (5×10^5 cells/ml) were added to a 24-well plate with 10% FBS-containing DMEM medium in an amount of 1 ml per well and cultured for 24 hours. […] After 30 minutes, 1 μg/ml of LPS was added to the cells which were then cultured in a 5% CO2 incubator at 37° C. for 20 hours (test groups). As a blank, RAW cells cultured without addition of LPS and the inventive composition were used, and as a control group, RAW cells cultured with addition of only LPS were used.
100 μl of the supernatant of each well was taken and allowed to react with 90 μl of each of sulfanilamide solution and N-(1-naphtyl)-ethylenediamine solution. Then, each reaction product was measured for absorbance at 540 nm to determine the amount of nitrate or nitrite produced in the culture medium, and the results of the measurement are shown in FIG. 1.
A standard curve was potted using NaNO2 solution, and the NO production inhibitory activity of each of the samples was evaluated by calculating NaNO2 concentration in each test group relative to the control group using the following equation 1 based on the measured absorbance and comparing the calculated NaNO2 concentration with that in the group treated with LPS alone. Inhibition rate (%) was calculated as nitrate concentration using the following equation, and then the IC50 value of the composition was calculated.

LPS-induced sepsis = experiment: Animal model with LPS-induced sepsis; type: in vivo, ICR mice; settings: LPS (S. marcenes) 2 mg/kg then 10 mg/kg
Protocol: The effect of the inventive composition (thio-Cl-IB-MECA) in an animal model with LPS-induced sepsis was tested. S. marcenes-derived LPS used in the test is known to be strongly pathogenic compared to E. coli-derived LPS. First, LPS was administered at low dose to attenuate an immune response in animals, and after a given time, it was administered at high dose to rapidly induce sepsis and septic shock. Specifically, ICR mice (20-25 g, male) were divided into the following 5 groups, each consisting of 6 mice: a normal group not treated with any substance; a control group administered with only saline; groups administered with the inventive composition (200 and 500 μg/kg of thio-Cl-IB-MECA); and a group administered with the conventional A3 adenosine receptor agonist (500 μg/kg IB-MECA). 30 minutes administration of these drugs, a solution of 2 mg/kg LPS (S. marcenes) in saline was administered intraabdominally. After 20 hours, the drug was administered again, and 30 minutes, LPS (S. marcenes) was administered again at a dose of 10 mg/kg. The mice were observed hourly up to 6 hours after the second stimulation, and the survival rate was observed up to 7 days after the second stimulation. The effect of the inventive composition (thio-Cl-IB-MECA) was compared with the effect of the prior A3 adenosine receptor agonist (IB-MECA), and the effects of the inventive composition (thio-Cl-IB-MECA) at different doses (200 and 500 μg/kg) were compared with each other.
The change in bodyweight was measured before the start of the test, before the second administration of the drug, and 7 days after the second administration.

[2] = tested on: PC-3 (androgen receptor independent); experiment: SRB assay, growth of PC-3 cells; type: cell-based, human; settings: for pIC50: SRB, 3 days
Protocol: In order to examine the inhibitory effects on the growth of the human prostate cancer cells LNCaP (androgen receptor dependent) and PC-3 (androgen receptor independent), a sulforhodamine B (SRB) assay was performed.
10 μL of a solution of thio-Cl-IB-MECA in 10% dimethylsulfoxide (DMSO) was loaded in each well of a 96-well plate in triplicate at concentrations of 50, 25, 12.5 and 6.25 μM, thus making a test plate. Cells were diluted to a density of 6×10^4 cells/ml with 10% FBS-containing RPMI 1640 medium supplemented with antibiotics-antimycotics, and 190 μL of the cell suspension was added to each well so as to reach a total volume of 200 μL and was cultured in a 5% CO2 incubator at 37° C. for 3 days. At the same time, 190 μL of the same cell suspension was loaded into each of 16 wells or more of a fresh 96-well plate containing no sample (thio-Cl-IB-MECA) and was cultured in a 5% CO2 incubator at 37° C. for 30 minutes, thereby determining reference date. After the culture, 50 μL of 50% trichloroacetic acid (TCA) was added to each well, and the cells were fixed by culture at 4° C. for 1 hour. Then, the well plate was washed five times with tap water and dried. 100 μL of 1% acetic acid solution containing […] sulforhodamine B (SRB) was added to each well to stain the cells, and the well plate was allowed to stand at room temperature for 1 hour. After the well plate has been washed five times with 1% acetic acid and sufficiently dried, 200 μL of 100 mM Tris-base was added to each well, and the bound staining liquid was dissolved and sufficiently shaken in a shaker. Then, the absorbance at 515 nm was measured using an ELISA microplate reader. Based on the measured absorbance, the cell viability of the test group relative to the control group was calculated using the following equation 2, and based on the viability at each concentration, the IC50 value of the sample was calculated using TableCurve program: […]

[3] = tested on: human colorectal cancer HCT 116 cells; experiment: Anticancer activity in nude mice transplanted with HCT 116 cells; type: in vivo, nude mice (Balb/c-nu/nu mice); settings: for side effects (such as a change in bodyweight) during the test period: 0.02, 0.2 and 2 mg/kg orally for 21 days
Protocol: HCT 116 cells were prepared at a concentration of 2×10^6 cells/200 μl (RPMI) and administered subcutaneously into the right frank of 6-week-old female nude mice (Balb/c-nu/nu mice). The tumor size was measured with calipers, and the tumor size reached about 100 mm^3, 20 mice having substantially the same tumor size were divided into a control group and three sample-treated groups. The three sample-treated group were administered orally with IB-MECA at doses of 0.02, 0.2 and 2 mg/kg, respectively, for 21 days. In the control group and the sample-treated groups, the bodyweight was measured once every week, and the tumor size was measured at intervals of 3-4 days. The tumor volume was measured using equation 3 above. In the equation, a represents the longer diameter of the tumor, b represents the shorter diameter of the tumor, and c represents the height of the tumor.
Anticancer activity was measured by an animal test in the same manner as Example 20, except that 6-week-old female nude mice were administered with Cl-IB-MECA in place of IB-MECA as a sample.
Anticancer activity was measured by an animal test in the same manner as Example 20, except that 6-week-old female nude mice were administered with thio-Cl-IB-MECA in place of IB-MECA as a sample.

`CNC(=O)[C@H]1S[C@@H](n2cnc3c(NCc4cccc(I)c4)nc(Cl)nc32)[C@H](O)[C@@H]1O` [thio-Cl-IB-MECA, 2-chloro-N^6-(3-iodobenzyl)-4′-thioadenosine-5′-N-methyluronamide] was tested, and the “production of NO” value ([1]; 5, 10 and 20 μM) was “inhibited in a concentration-dependent manner”, the pIC50 [1] was 4.79 and the “survival rate after 1 day” value (LPS-induced sepsis; 200 μg/kg) was 71.4%. For the same compound, the “survival rate after 1 day” value (LPS-induced sepsis; 500 μg/kg) was 66.7%, the pIC50 [2] was 4.69 and the “inhibition rate of tumor growth” value ([3]; 0.02 mg/kg orally for 21 days) was 16.1%. The “inhibition rate of tumor growth” value ([3]; 0.2 mg/kg orally for 21 days) was 54.4%, the “inhibition rate of tumor growth” value ([3]; 2 mg/kg orally for 21 days) was 62.1% and the “side effects (such as a change in bodyweight) during the test period” value [3] was “survived healthfully without particular side effects”.
With `CNC(=O)[C@H]1O[C@@H](n2cnc3c(NCc4cccc(I)c4)ncnc32)[C@H](O)[C@@H]1O` [IB-MECA] the pIC50 [1] was 4.18, the “survival rate after 1 day” value (LPS-induced sepsis; 500 μg/kg) was 66.7% and the “cell viability in PC-3” value ([2]; 50 μM (highest concentration)) was 63%. The pIC50 [2] was 4.01, the “inhibition rate of tumor growth” value ([3]; 0.02 mg/kg orally for 21 days) was 20.7% and the “inhibition rate of tumor growth” value ([3]; 0.2 mg/kg orally for 21 days) was 48.7%. The “inhibition rate of tumor growth” value ([3]; 2 mg/kg orally for 21 days) was 58.6% and the “side effects (such as a change in bodyweight) during the test period” value [3] was “survived healthfully without particular side effects”.
